How the values were obtained:
Type in all cases: in vivo
[1] = test system: Amaranthus retoflexus (AMARE); experiment: Experiment B1 glasshouse herbicide test, pre- and post-emergence, percentage damage; conditions: 1000 g/h, evaluated after 13 days
Method: (§1) Seeds of a variety of test species are sown in standard soil in pots (Lolium perenne (LOLPE), Solanum nigrum (SOLNI), Amaranthus retoflexus (AMARE), Setaria faberi (SETFA), Echinochloa crus-galli (ECHCG), Ipomoea hederacea (IPOHE)). After cultivation for one day (pre-emergence) or after 8 days cultivation (post-emergence) under controlled conditions in a glasshouse (at 24/16° C., day/night; 14 hours light; 65% humidity), the plants are sprayed with an aqueous spray solution derived from the formulation of the technical active ingredient in acetone/water (50:50) solution containing 0.5% Tween 20 (polyoxyethelyene sorbitan monolaurate, CAS RN 9005-64-5). […] The test plants are then grown in a glasshouse under controlled conditions in a glasshouse (at 24/16° C., day/night; 14 hours light; 65% humidity) and watered twice daily. After 13 days for pre and post-emergence, the test is evaluated for the percentage damage caused to the plant. The biological activities are shown in the following table on a five point scale (5=80-100%; 4=60-79%; 3=40-59%; 2=20-39%; 1=0-19%).

[2] = test system: Echinochloa crus-galli (ECHCG); experiment: as above; conditions: 1000 g/h, evaluated after 13 days
Method: as §1

[3] = test system: Ipomoea hederacea (IPOHE); experiment: as above; conditions: 1000 g/h, evaluated after 13 days
Method: as §1

Lolium perenne (LOLPE) = experiment: as above; conditions: 1000 g/h, evaluated after 13 days
Method: as §1

Setaria faberi (SETFA) = experiment: as above; conditions: 1000 g/h, evaluated after 13 days
Method: as §1

Solanum nigrum (SOLNI) = experiment: as above; conditions: 1000 g/h, evaluated after 13 days
Method: as §1

[4] = test system: Eriochloa villosa (ERBVI); experiment: Experiment B2 comparative glasshouse herbicide test, pre- and post-emergence, phytotoxicity
Method: (§2) A comparative test is performed to compare the efficacy of quinoline compounds of the present invention with quinoline compounds taught in WO2014/037342 and napthyridines taught in WO2013/092834. Seeds of a variety of test species were sown in standard soil in pots. After cultivation for one day (pre-emergence) or after 10 days cultivation (post-emergence) under controlled conditions in a glasshouse (at 24/16° C., day/night; 14 hours light; 65% humidity), the plants were sprayed with an aqueous spray solution derived from the formulation of the technical active ingredient in 0.6 ml acetone and 45 ml formulation solution containing 10.6% Emulsogen EL (Registry number 61791-12-6), 42.2% N-methyl pyrrolidone, 42.2% dipropylene glycol monomethyl ether (CAS RN 34590-94-8) and 0.2% X-77 (CAS RN 11097-66-8). The test plants were then grown in a glasshouse under controlled conditions in a glasshouse (at 24/16° C., day/night; 14 hours light; 65% humidity) and watered twice daily. After 14 days for post-emergence and 21 days for pre-emergence and phytotoxicity evaluated using a five point scale (5=80-100%; 4=60-79%; 3=40-59%; 2=20-39%; 1=0-19%). Test Plants:—Eriochloa villosa (ERBVI), Panicum miliaceum (PANMI).

[5] = test system: Panicum miliaceum (PANMI); experiment: as above
Method: as §2

[6] = POST Application (post-emergence, after 8 days cultivation)
[7] = PRE Application (pre-emergence, after cultivation for one day)
[8] = POST Application (60 g/ha), after 10 days cultivation, evaluated after 14 days
[9] = PRE Application (250 g/ha), after cultivation for one day, evaluated after 21 days

## Cn1nnnc1NC(=O)c1cc2cccnc2c(-c2ccccc2)c1C(F)(F)F [Compound 1.001, N-(1-methyltetrazol-5-yl)-8-phenyl-7-(trifluoromethyl)-quinoline-6-carboxamide]
[1]; [6]
  percentage damage caused to the plant, five point scale, AMARE: 5 (5=80-100%)
[1]; [7]
  percentage damage caused to the plant, five point scale, AMARE: 5 (5=80-100%)
[2]; [6]
  percentage damage caused to the plant, five point scale, ECHCG: 5 (5=80-100%)
[2]; [7]
  percentage damage caused to the plant, five point scale, ECHCG: 5 (5=80-100%)
[3]; [6]
  percentage damage caused to the plant, five point scale, IPOHE: 5 (5=80-100%)
[3]; [7]
  percentage damage caused to the plant, five point scale, IPOHE: 5 (5=80-100%)
Lolium perenne (LOLPE); [6]
  percentage damage caused to the plant, five point scale, LOLPE: 5 (5=80-100%)
Lolium perenne (LOLPE); [7]
  percentage damage caused to the plant, five point scale, LOLPE: 5 (5=80-100%)
Setaria faberi (SETFA); [6]
  percentage damage caused to the plant, five point scale, SETFA: 5 (5=80-100%)
Setaria faberi (SETFA); [7]
  percentage damage caused to the plant, five point scale, SETFA: 5 (5=80-100%)
Solanum nigrum (SOLNI); [6]
  percentage damage caused to the plant, five point scale, SOLNI: 5 (5=80-100%)
Solanum nigrum (SOLNI); [7]
  percentage damage caused to the plant, five point scale, SOLNI: 5 (5=80-100%)
[4]; [8]
  phytotoxicity, five point scale, ERBVI: 5 (5=80-100%)
[4]; [9]
  phytotoxicity, five point scale, ERBVI: 3 (3=40-59%)
[5]; [8]
  phytotoxicity, five point scale, PANMI: 5 (5=80-100%)
[5]; [9]
  phytotoxicity, five point scale, PANMI: 5 (5=80-100%)

## COc1c(C(=O)Nc2nnnn2C)cc2cccnc2c1-c1ccccc1 [Compound 1.009, 7-methoxy-N-(1-methyltetrazol-5-yl)-8-phenyl-quinoline-6-carboxamide]
[1]; [6]
  percentage damage caused to the plant, five point scale, AMARE: 5 (5=80-100%)
[1]; [7]
  percentage damage caused to the plant, five point scale, AMARE: 5 (5=80-100%)
[2]; [6]
  percentage damage caused to the plant, five point scale, ECHCG: 5 (5=80-100%)
[2]; [7]
  percentage damage caused to the plant, five point scale, ECHCG: 5 (5=80-100%)
[3]; [6]
  percentage damage caused to the plant, five point scale, IPOHE: 5 (5=80-100%)
[3]; [7]
  percentage damage caused to the plant, five point scale, IPOHE: 5 (5=80-100%)
Lolium perenne (LOLPE); [6]
  percentage damage caused to the plant, five point scale, LOLPE: 4 (4=60-79%)
Lolium perenne (LOLPE); [7]
  percentage damage caused to the plant, five point scale, LOLPE: 5 (5=80-100%)
Setaria faberi (SETFA); [6]
  percentage damage caused to the plant, five point scale, SETFA: 5 (5=80-100%)
Setaria faberi (SETFA); [7]
  percentage damage caused to the plant, five point scale, SETFA: 5 (5=80-100%)
Solanum nigrum (SOLNI); [6]
  percentage damage caused to the plant, five point scale, SOLNI: 5 (5=80-100%)
Solanum nigrum (SOLNI); [7]
  percentage damage caused to the plant, five point scale, SOLNI: 5 (5=80-100%)

Source: patent publication US9980486B2, “Herbicidal quinolines” (Syngenta Participations AG, priority 2014, dated 2018)
